From patent US7910600B2, “Therapeutic kinase modulators” (Cylene Pharmaceuticals, Inc., priority 2007, dated 2011)

tested on: MiaPaca human pancreatic carcinoma cells; assay: Cell proliferation assay (Alamar Blue), MiaPaCa; assay type: cell-based; details: MIA PaCa-2, MiaPaCa cell line
Experimental: (§1) A representative cell-proliferation assay protocol using Alamar Blue dye (stored at 4° C., use 20 ul per well) is described hereafter.
(§2) 96-Well Plate Setup and Compound Treatment
(§3) • a. Split and trypsinize cells. • b. Count cells using hemocytometer. • c. Plate 4,000-5,000 cells per well in 100 μl of medium and seed into a 96-well plate according to the following plate layout. Add cell culture medium only to wells B10 to B12. Wells B1 to B9 have cells but no compound added.
(§4) • d. Add 100 μl of 2× drug dilution to each well in a concentration shown in the plate layout above. At the same time, add 100 μl of media into the control wells (wells B10 to B12). Total volume is 200 μl/well. • e. Incubate four (4) days at 37° C., 5% CO2 in a humidified incubator. • f. Add 20 μl Alamar Blue reagent to each well. • g. Incubate for four (4) hours at 37° C., 5% CO2 in a humidified incubator. • h. Record fluorescence at an excitation wavelength of 544 nm and emission wavelength of 590 nm using a microplate reader.
(§5) In the assays, cells are cultured with a test compound for approximately four days, the dye is then added to the cells and fluorescence of […] dye is detected after approximately four hours. Different types of cells can be utilized in the assays (e.g., HCT-116 human colorectal carcinoma cells, PC-3 human prostatic cancer cells and MiaPaca human pancreatic carcinoma cells).

| SMILES | IC50 [µM] |
| --- | --- |
| O=C(O)c1ccc2c(c1)nc(-c1ccc(F)cc1)c1ccncc12 | > 30 |
| COC(=O)c1ccc2c(c1)nc(-c1ccccc1)c1nc(S(C)(=O)=O)ncc12 [methyl 3-(methylsulfonyl)-5-phenylpyrimido[4,5-c]quinoline-8-carboxylate] | 5.5 |
| O=C(O)c1ccc2c(c1)nc(-c1cccc(F)c1)c1ccncc12 | > 10 |
| O=C(NC1CC1)c1ccc2c(c1)nc(-c1ccccc1)c1nc(NC3CC3)ncc12 [N-cyclopropyl-3-(cyclopropylamino)-5-phenylpyrimido[4,5-c]quinoline-8-carboxamide] | 58.4 |
| NC(=O)c1ccc2c(c1)nc(-c1ccccc1)c1nc(NC3CC3)ncc12 | 5.2 |

The next compounds have a lower IC50 than those just listed; values first:

| IC50 [µM] | SMILES |
| --- | --- |
| 0.9 | Cn1cc(-c2nc3cc(C(=O)O)ccc3c3cnc(NC4CC4)nc23)cn1 |
| 3.2 | COC(=O)c1ccc2c(c1)nc(-c1ccccc1)c1nc(NC3CC3)ncc12 [methyl 3-(cyclopropylamino)-5-phenylpyrimido[4,5-c]quinoline-8-carboxylate] |
| 0.6 | COC(=O)c1ccc2c(c1)nc(-c1cnn(C)c1)c1nc(NC3CC3)ncc12 |

tested on: BxPC3; assay: Cell proliferation assay (Alamar Blue), BxPC3; assay type: cell-based; details: Homo sapiens, BXPC-3; BxPC3 cell line; read-out: Bx-PC3
Experimental: as §1, §2, §3, §4, §5

| SMILES | IC50 [µM] |
| --- | --- |
| COC(=O)c1ccc2c(c1)nc(-c1ccccc1)c1nc(S(C)(=O)=O)ncc12 [methyl 3-(methylsulfonyl)-5-phenylpyrimido[4,5-c]quinoline-8-carboxylate] | 10.6 |
| O=C(NC1CC1)c1ccc2c(c1)nc(-c1ccccc1)c1nc(NC3CC3)ncc12 [N-cyclopropyl-3-(cyclopropylamino)-5-phenylpyrimido[4,5-c]quinoline-8-carboxamide] | 1.2 |
| NC(=O)c1ccc2c(c1)nc(-c1ccccc1)c1nc(NC3CC3)ncc12 | 1.1 |

Continued, values first:

| IC50 [µM] | SMILES |
| --- | --- |
| 13.6 | Cn1cc(-c2nc3cc(C(=O)O)ccc3c3cnc(NC4CC4)nc23)cn1 |
| 1.9 | COC(=O)c1ccc2c(c1)nc(-c1ccccc1)c1nc(NC3CC3)ncc12 [methyl 3-(cyclopropylamino)-5-phenylpyrimido[4,5-c]quinoline-8-carboxylate] |
| > 30 | COC(=O)c1ccc2c(c1)nc(-c1cnn(C)c1)c1nc(NC3CC3)ncc12 |

tested on: HCT-116 human colorectal carcinoma cells; assay: Cell proliferation assay (Alamar Blue), HCT-116; assay type: cell-based; details: HCT-116 cell line
Experimental: as §1, §2, §3, §4, §5

| SMILES | IC50 [µM] |
| --- | --- |
| O=C(O)c1ccc2c(c1)nc(-c1ccc(F)cc1)c1ccncc12 | > 10 |
| COC(=O)c1ccc2c(c1)nc(-c1ccccc1)c1nc(S(C)(=O)=O)ncc12 [methyl 3-(methylsulfonyl)-5-phenylpyrimido[4,5-c]quinoline-8-carboxylate] | 2.7 |
| O=C(O)c1ccc2c(c1)nc(-c1cccc(F)c1)c1ccncc12 | > 10 |
| O=C(NC1CC1)c1ccc2c(c1)nc(-c1ccccc1)c1nc(NC3CC3)ncc12 [N-cyclopropyl-3-(cyclopropylamino)-5-phenylpyrimido[4,5-c]quinoline-8-carboxamide] | 0.8 |
| NC(=O)c1ccc2c(c1)nc(-c1ccccc1)c1nc(NC3CC3)ncc12 | 1.1 |

Other lines, results leading:

| IC50 [µM] | SMILES |
| --- | --- |
| > 10 | Cn1cc(-c2nc3cc(C(=O)O)ccc3c3cnc(NC4CC4)nc23)cn1 |
| 2.6 | COC(=O)c1ccc2c(c1)nc(-c1ccccc1)c1nc(NC3CC3)ncc12 [methyl 3-(cyclopropylamino)-5-phenylpyrimido[4,5-c]quinoline-8-carboxylate] |
| > 10 | COC(=O)c1ccc2c(c1)nc(-c1cnn(C)c1)c1nc(NC3CC3)ncc12 |

tested on: PC-3 human prostatic cancer cells; assay: Cell proliferation assay (Alamar Blue), PC3; assay type: cell-based; details: PC3 cell line
Experimental: as §1, §2, §3, §4, §5

| IC50 [µM] | SMILES |
| --- | --- |
| > 10 | O=C(O)c1ccc2c(c1)nc(-c1ccc(F)cc1)c1ccncc12 |
| > 10 | O=C(O)c1ccc2c(c1)nc(-c1cccc(F)c1)c1ccncc12 |

target: T1, recombinant human CK2 (Homo sapiens, UniProt P68400); assay: Cell-free CK2 assay; assay type: biochemical; details: not given
T1 construct: purchased Upstate
T1 sequence (P68400 whole entry): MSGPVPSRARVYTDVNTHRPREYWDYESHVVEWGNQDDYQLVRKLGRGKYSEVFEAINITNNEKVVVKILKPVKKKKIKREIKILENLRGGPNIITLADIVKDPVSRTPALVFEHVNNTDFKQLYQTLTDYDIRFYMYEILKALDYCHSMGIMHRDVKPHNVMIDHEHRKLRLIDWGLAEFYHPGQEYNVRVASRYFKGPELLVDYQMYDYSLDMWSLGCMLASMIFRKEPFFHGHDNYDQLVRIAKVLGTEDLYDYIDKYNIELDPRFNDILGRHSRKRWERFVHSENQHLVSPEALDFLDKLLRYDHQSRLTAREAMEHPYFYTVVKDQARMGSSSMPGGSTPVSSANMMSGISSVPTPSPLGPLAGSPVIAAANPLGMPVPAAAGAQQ
T1 sequence (P67870 whole entry partner): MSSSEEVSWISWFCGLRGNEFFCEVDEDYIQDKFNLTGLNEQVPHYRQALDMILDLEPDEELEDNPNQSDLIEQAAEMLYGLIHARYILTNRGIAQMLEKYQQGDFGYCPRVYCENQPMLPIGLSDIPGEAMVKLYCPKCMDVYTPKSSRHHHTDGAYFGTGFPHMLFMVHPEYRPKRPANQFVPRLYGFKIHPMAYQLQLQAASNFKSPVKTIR
Experimental: Modulatory activity of compounds described herein is assessed in vitro in cell-free CK2 assays. These assays are described hereafter.
Test compounds in aqueous solution are added at a volume of 10 microliters, to a reaction mixture comprising 10 microliters Assay Dilution Buffer (ADB; 20mM MOPS, pH 7.2, 25 mM beta-glycerolphosphate, 5 mM EGTA, 1 mM sodium orthovanadate and 1 mM dithiothreitol), 10 microliters of substrate peptide (RRRDDDSDDD (SEQ ID NO:4), dissolved in ADB at a concentration of 1 mM), 10 microliters of recombinant human CK2 (25 ng dissolved in ADB; Upstate). Reactions are initiated by the addition of 10 microliters of ATP Solution (90% 75 mM MgC12, 75 micromolar ATP dissolved in ADB; 10% [γ-^33P]ATP (stock 1 mCi/100 μl; 3000 Ci/mmol (Perkin Elmer) and maintained for 10 minutes at 30 degrees C. The reactions are quenched with 100 microliters of 0.75% phosphoric acid, then transferred to and filtered through a phosphocellulose filter plate (Millipore). After washing each well 5 times with 0.75% phosphoric acid, the plate is dried under vacuum for 5 min and, following the addition of 15 ul of scintillation fluid to each well, the residual radioactivity is measured using a Wallac […].

| IC50 [µM] | SMILES |
| --- | --- |
| 0.033 | O=C(O)c1ccc2c(c1)nc(-c1ccc(F)cc1)c1ccncc12 |
| 0.029 | O=C(O)c1ccc2c(c1)nc(-c1cccc(F)c1)c1ccncc12 |
| 0.004 | Cn1cc(-c2nc3cc(C(=O)O)ccc3c3cnc(NC4CC4)nc23)cn1 |

same assay, conditions: read-out: CK2: % inh 500 nM

| SMILES | inhibition at 0.5 µM [%] |
| --- | --- |
| O=C(O)c1ccc2c(c1)nc(-c1ccc(F)cc1)c1ccncc12 | 98 |
| COC(=O)c1ccc2c(c1)nc(-c1ccccc1)c1nc(S(C)(=O)=O)ncc12 [methyl 3-(methylsulfonyl)-5-phenylpyrimido[4,5-c]quinoline-8-carboxylate] | -18 |
| O=C(O)c1ccc2c(c1)nc(-c1cccc(F)c1)c1ccncc12 | 98 |
| O=C(NC1CC1)c1ccc2c(c1)nc(-c1ccccc1)c1nc(NC3CC3)ncc12 [N-cyclopropyl-3-(cyclopropylamino)-5-phenylpyrimido[4,5-c]quinoline-8-carboxamide] | -4 |
| NC(=O)c1ccc2c(c1)nc(-c1ccccc1)c1nc(NC3CC3)ncc12 | 45 |

Results, then the compound that gave them:

| inhibition at 0.5 µM [%] | SMILES |
| --- | --- |
| 101 | Cn1cc(-c2nc3cc(C(=O)O)ccc3c3cnc(NC4CC4)nc23)cn1 |
| -27 | COC(=O)c1ccc2c(c1)nc(-c1ccccc1)c1nc(NC3CC3)ncc12 [methyl 3-(cyclopropylamino)-5-phenylpyrimido[4,5-c]quinoline-8-carboxylate] |
| 10 | COC(=O)c1ccc2c(c1)nc(-c1cnn(C)c1)c1nc(NC3CC3)ncc12 |

tested on: MV-4-11; assay: Cell proliferation assay (Alamar Blue), MV-4-11; assay type: cell-based; details: Homo sapiens, MV4-11; MV-4-11 cell line
Experimental: as §1, §2, §3, §4, §5

| IC50 [µM] | SMILES |
| --- | --- |
| 7 | O=C(O)c1ccc2c(c1)nc(-c1ccc(F)cc1)c1ccncc12 |
| 1.4 | O=C(O)c1ccc2c(c1)nc(-c1cccc(F)c1)c1ccncc12 |
| 0.6 | Cn1cc(-c2nc3cc(C(=O)O)ccc3c3cnc(NC4CC4)nc23)cn1 |

tested on: PanC1; assay: Cell proliferation assay (Alamar Blue), PanC1; assay type: cell-based; details: Homo sapiens, PANC-1; PanC1 cell line
Experimental: as §1, §2, §3, §4, §5

| SMILES | IC50 [µM] |
| --- | --- |
| COC(=O)c1ccc2c(c1)nc(-c1ccccc1)c1nc(S(C)(=O)=O)ncc12 [methyl 3-(methylsulfonyl)-5-phenylpyrimido[4,5-c]quinoline-8-carboxylate] | 9.8 |
| O=C(NC1CC1)c1ccc2c(c1)nc(-c1ccccc1)c1nc(NC3CC3)ncc12 [N-cyclopropyl-3-(cyclopropylamino)-5-phenylpyrimido[4,5-c]quinoline-8-carboxamide] | 30.2 |
| NC(=O)c1ccc2c(c1)nc(-c1ccccc1)c1nc(NC3CC3)ncc12 | 25.9 |

The next lines start with the values.

| IC50 [µM] | SMILES |
| --- | --- |
| > 30 | Cn1cc(-c2nc3cc(C(=O)O)ccc3c3cnc(NC4CC4)nc23)cn1 |
| 8.7 | COC(=O)c1ccc2c(c1)nc(-c1ccccc1)c1nc(NC3CC3)ncc12 [methyl 3-(cyclopropylamino)-5-phenylpyrimido[4,5-c]quinoline-8-carboxylate] |
| 1.4 | COC(=O)c1ccc2c(c1)nc(-c1cnn(C)c1)c1nc(NC3CC3)ncc12 |

tested on: Jurkat; assay: Cell proliferation assay (Alamar Blue), Jurkat; assay type: cell-based; details: Homo sapiens; Jurkat cell line
Experimental: as §1, §2, §3, §4, §5

| SMILES | IC50 [µM] |
| --- | --- |
| COC(=O)c1ccc2c(c1)nc(-c1ccccc1)c1nc(S(C)(=O)=O)ncc12 [methyl 3-(methylsulfonyl)-5-phenylpyrimido[4,5-c]quinoline-8-carboxylate] | 0.7 |
| O=C(NC1CC1)c1ccc2c(c1)nc(-c1ccccc1)c1nc(NC3CC3)ncc12 [N-cyclopropyl-3-(cyclopropylamino)-5-phenylpyrimido[4,5-c]quinoline-8-carboxamide] | 0.6 |
| NC(=O)c1ccc2c(c1)nc(-c1ccccc1)c1nc(NC3CC3)ncc12 | 0.5 |

The remaining lines, values ahead:

| IC50 [µM] | SMILES |
| --- | --- |
| 3.6 | Cn1cc(-c2nc3cc(C(=O)O)ccc3c3cnc(NC4CC4)nc23)cn1 |
| 1.1 | COC(=O)c1ccc2c(c1)nc(-c1ccccc1)c1nc(NC3CC3)ncc12 [methyl 3-(cyclopropylamino)-5-phenylpyrimido[4,5-c]quinoline-8-carboxylate] |
| > 30 | COC(=O)c1ccc2c(c1)nc(-c1cnn(C)c1)c1nc(NC3CC3)ncc12 |

tested on: MDA-MB231; assay: Cell proliferation assay (Alamar Blue), MDA-MB231; assay type: cell-based; details: Homo sapiens, MDA-MB-231; MDA-MB231 cell line
Experimental: as §1, §2, §3, §4, §5

| SMILES | IC50 [µM] |
| --- | --- |
| COC(=O)c1ccc2c(c1)nc(-c1ccccc1)c1nc(S(C)(=O)=O)ncc12 [methyl 3-(methylsulfonyl)-5-phenylpyrimido[4,5-c]quinoline-8-carboxylate] | 6.4 |
| O=C(O)c1ccc2c(c1)nc(-c1cccc(F)c1)c1ccncc12 | 0.2 |
| O=C(NC1CC1)c1ccc2c(c1)nc(-c1ccccc1)c1nc(NC3CC3)ncc12 [N-cyclopropyl-3-(cyclopropylamino)-5-phenylpyrimido[4,5-c]quinoline-8-carboxamide] | > 62.5 |
| NC(=O)c1ccc2c(c1)nc(-c1ccccc1)c1nc(NC3CC3)ncc12 | 35.7 |

The next lines start with the values.

| IC50 [µM] | SMILES |
| --- | --- |
| > 30 | Cn1cc(-c2nc3cc(C(=O)O)ccc3c3cnc(NC4CC4)nc23)cn1 |
| 3.4 | COC(=O)c1ccc2c(c1)nc(-c1ccccc1)c1nc(NC3CC3)ncc12 [methyl 3-(cyclopropylamino)-5-phenylpyrimido[4,5-c]quinoline-8-carboxylate] |
| 17.2 | COC(=O)c1ccc2c(c1)nc(-c1cnn(C)c1)c1nc(NC3CC3)ncc12 |

tested on: K562; assay: Cell proliferation assay (Alamar Blue), K562; assay type: cell-based; details: Homo sapiens; K562 cell line
Experimental: as §1, §2, §3, §4, §5

| IC50 [µM] | SMILES |
| --- | --- |
| 1 | O=C(O)c1ccc2c(c1)nc(-c1ccc(F)cc1)c1ccncc12 |
| > 10 | O=C(O)c1ccc2c(c1)nc(-c1cccc(F)c1)c1ccncc12 |
| 0.6 | Cn1cc(-c2nc3cc(C(=O)O)ccc3c3cnc(NC4CC4)nc23)cn1 |
